Patent US5173510A, “Simplified thioester and isostere analogs of oleoyl coenzyme A as hypocholesterolemic agents” (American Cyanamid Company, priority 1991, dated 1992)

What follows are compounds tested against T1, acyl coenzyme A: cholesterol O-acyltransferase (ACAT) (Oryctolagus cuniculus, UniProt G1SFD9) (assay: Inhibition of ACAT catalyzed formation of cholesterol oleate from endogenous cholesterol and exogenous 14C oleate). Conditions: concentration at which 50% of the cholesterol esterification reaction is inhibited; rabbit jejunum mucosa microsomal fraction.
T1 construct: The microsomal fraction was isolated by centrifugation and stored frozen; from tissue; host or cells: jejunal mucosa microsomes of New Zealand white rabbits
T1 sequence (G1SFD9 1-524): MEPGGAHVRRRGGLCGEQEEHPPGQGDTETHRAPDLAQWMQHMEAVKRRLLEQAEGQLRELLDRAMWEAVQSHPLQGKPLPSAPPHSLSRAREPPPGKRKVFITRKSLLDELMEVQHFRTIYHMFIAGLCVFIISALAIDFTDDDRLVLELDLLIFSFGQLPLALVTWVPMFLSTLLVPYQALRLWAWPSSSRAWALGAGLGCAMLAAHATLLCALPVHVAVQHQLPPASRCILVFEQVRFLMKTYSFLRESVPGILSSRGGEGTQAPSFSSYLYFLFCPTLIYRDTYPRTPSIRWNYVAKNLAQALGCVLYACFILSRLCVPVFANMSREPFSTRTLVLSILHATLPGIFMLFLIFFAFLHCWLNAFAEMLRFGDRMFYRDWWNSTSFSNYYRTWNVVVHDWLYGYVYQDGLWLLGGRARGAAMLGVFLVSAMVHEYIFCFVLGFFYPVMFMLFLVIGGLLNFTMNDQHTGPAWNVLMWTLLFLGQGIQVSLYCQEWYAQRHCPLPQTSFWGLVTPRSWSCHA
Assay type: biochemical, New Zealand white rabbits
Procedure: The compounds of this invention were tested for their ability to inhibit the acyl coenzyme A: cholesterol O-acyltransferase (ACAT) catalyzed formation of cholesterol oleate from endogenous cholesterol and exogenous ^14 C oleate.
The mucosa from the Jejunum of New Zealand white rabbits was removed by scraping with a spatula and homogenized in a solution containing 0.25M sucrose, 1 mM EDTA, 1 mM dithiothreitol and 5 mM of potassium phosphate (pH 7.4). The microsomal fraction was isolated by centrifugation and stored frozen at -70° C. in sucrose buffer (3 mg protein/ml) until use. The ACAT reaction was assayed using the method of S. Hashimoto, et al., Life Science 12, 1 (1973). The test compounds were dissolved in methanol at concentrations such that the addition of 0.003 ml in a reaction volume of 0.5 ml gave the final desired concentration.
Referring to the table, IC50 indicates the concentration of the compound at which 50% of the cholesterol esterfication reaction is inhibited. […] As can be observed from the table, the compounds of the present invention are very potent inhibitors of the ACAT enzyme catalyzed reaction. […] In view of the results presented in the table, these compounds are useful for controlling and reducing the cholesteryl ester content of mammalian arterial walls and decreasing the accumulation and storage of cholesterol in the arterial walls of mammals. Further, the compounds of this invention may inhibit the formation or development of atherosclerotic lesions in mammals.

Row | SMILES | IC50
1 | CCCCCCCC/C=C\CCCCCCCC(=O)OCCNC(C)=O [Example 11] | > 100 µM
2 | CCCCCCCC/C=C\CCCCCCCC(=O)OCCNC(=O)CCNC(C)=O [Example 13, 2-[[3-(Acetylamino)-1-oxopropyl]amino]ethyl-9(Z)-octadecenoate] | > 150 µM
3 | CCCCCCCC/C=C\CCCCCCCC(=O)NCCNC(=O)CCNC(C)=O [Example 22, N-[2-[[3-(Acetylamino)-1-oxopropyl]amino]ethyl]-9(Z)-octadecenamide] | > 100 µM
4 | CCCCCCCC/C=C\CCCCCCCC(=O)NCCNC(=O)CCNC(=O)C1OC(C)(C)OCC1(C)C (stereo not drawn) [Example 25, 2,2,5,5-Tetramethyl-N-[3-oxo-3-[[2-[(1-oxo-9(Z)-octadecenyl)amino]ethyl]amino]propyl]-1,3-dioxane-4-carboxamide] | 1.2 µM
5 | CCCCCCCC/C=C\CCCCCCCC(=O)OCCNC(=O)CCNC(=O)C(O)C(C)(C)CO (stereo not drawn) [Example 17, 2-[[3-[(2,4-Dihydroxy-3,3-dimethyl-1-oxo-butyl)amino]-1-oxopropyl]amino]ethyl-9(Z)-octadecenoate] | 77 µM
6 | CCCCCCCC/C=C\CCCCCCCC(O)CCCNC(C)=O (stereo not drawn) [Example 31] | 47 µM
7 | CCCCCCCC/C=C\CCCCCCCC(=O)SCCNC(=O)CCNC(C)=O [Example 6, S-[2-[[3-(Acetylamino)-1-oxopropyl]amino]ethyl]-9(Z)-octadecenethioate] | > 100 µM
8 | CCCCCCCC/C=C\CCCCCCCC(=O)SCCNC(=O)CCNC(=O)[C@H](O)C(C)(C)CO [Example 10, S-[2-[[3-[(2,4-Dihydroxy-3,3-dimethyl-1-oxobutyl)amino]-1-oxopropyl]amino]ethyl]-9(Z)octadecenethioic acid] | 103 µM
9 | CCCCCCCC/C=C\CCCCCCCC(=O)NCCNC(=O)CCNC(=O)C(O)C(C)(C)CO (stereo not drawn) [Example 26, N-[2-[[3-[(2,4-Dihydroxy-3,3-dimethyl-1-oxo-butyl)amino]-1-oxopropyl]amino]ethyl]-9(Z)-octadecenamide] | 3.3 µM
10 | CCCCCCCC/C=C\CCCCCCCC(=O)SCCNC(C)=O [Example 3, S-[2-(Acetylamino)ethyl]-9(Z)-octadecenethioic acid] | > 100 µM
11 | CCCCCCCC/C=C\CCCCCCCC(=O)NCCNC(C)=O [Example 18, N-[2-(Acetylamino)ethyl]-9(Z)-octadecenamide] | 39 µM

The remaining lines, values ahead:

Row | IC50 | SMILES
12 | 108 µM | CCCCCCCC/C=C\CCCCCCCC(O)CCCNC(=O)CCNC(C)=O (stereo not drawn) [Example 33, 3-(Acetylamino)-N-(4-hydroxy-12(Z)-heneicosenyl)propanamide]
13 | 99 µM | CCCCCCCC/C=C\CCCCCCCC(=O)CCCNC(=O)CCNC(=O)C(O)C(C)(C)CO (stereo not drawn) [Example 37, 2,4-Dihydroxy-2,2-dimethyl-N-[3-oxo-3-[(4-oxo-12(Z)-heneicosenyl)amino]propyl]butanamide]
14 | 57 µM | CCCCCCCC/C=C\CCCCCCCC(O)CCCNC(=O)CCNC(=O)C(O)C(C)(C)CO (stereo not drawn) [Example 38, 2,4-Dihydroxy-N-[3-[(4-hydroxy-12(Z)-heneicosyl)amino]-3-oxopropyl]-3,3-dimethylbutanamide]
15 | 66 µM | CCCCCCCC/C=C\CCCCCCCC(=O)CCCNC(C)=O [Example 32]
16 | 113 µM | CCCCCCCC/C=C\CCCCCCCC(=O)CCCNC(=O)CCNC(C)=O [Example 34, 3-(Acetylamino)-N-(4-oxo-12(Z)-heneicosenyl)propanamide]

Same assay, conditions: summary statement on Table I

Row | potency as inhibitors of the ACAT enzyme catalyzed reaction (in words) | SMILES
17 | most potent | CCCCCCCC/C=C\CCCCCCCC(=O)NCCNC(=O)CCNC(=O)C1OC(C)(C)OCC1(C)C (stereo not drawn) [Example 25, 2,2,5,5-Tetramethyl-N-[3-oxo-3-[[2-[(1-oxo-9(Z)-octadecenyl)amino]ethyl]amino]propyl]-1,3-dioxane-4-carboxamide]
18 | most potent | CCCCCCCC/C=C\CCCCCCCC(=O)NCCNC(=O)CCNC(=O)C(O)C(C)(C)CO (stereo not drawn) [Example 26, N-[2-[[3-[(2,4-Dihydroxy-3,3-dimethyl-1-oxo-butyl)amino]-1-oxopropyl]amino]ethyl]-9(Z)-octadecenamide]
